# ChEMBL document CHEMBL1201862, “PubChem BioAssay data set” (2004)
# The source made the active and inactive calls.
# What was measured:
# [1] = biological target: T1, Replicative DNA helicase DnaB (Mycobacterium tuberculosis, UniProt P9WMR3); test: DnaB intein splicing inhibitors, dose response, biochemical, cell-free fluorescence (AID 449749); type: functional
# T1 sequence (P9WMR3 whole entry): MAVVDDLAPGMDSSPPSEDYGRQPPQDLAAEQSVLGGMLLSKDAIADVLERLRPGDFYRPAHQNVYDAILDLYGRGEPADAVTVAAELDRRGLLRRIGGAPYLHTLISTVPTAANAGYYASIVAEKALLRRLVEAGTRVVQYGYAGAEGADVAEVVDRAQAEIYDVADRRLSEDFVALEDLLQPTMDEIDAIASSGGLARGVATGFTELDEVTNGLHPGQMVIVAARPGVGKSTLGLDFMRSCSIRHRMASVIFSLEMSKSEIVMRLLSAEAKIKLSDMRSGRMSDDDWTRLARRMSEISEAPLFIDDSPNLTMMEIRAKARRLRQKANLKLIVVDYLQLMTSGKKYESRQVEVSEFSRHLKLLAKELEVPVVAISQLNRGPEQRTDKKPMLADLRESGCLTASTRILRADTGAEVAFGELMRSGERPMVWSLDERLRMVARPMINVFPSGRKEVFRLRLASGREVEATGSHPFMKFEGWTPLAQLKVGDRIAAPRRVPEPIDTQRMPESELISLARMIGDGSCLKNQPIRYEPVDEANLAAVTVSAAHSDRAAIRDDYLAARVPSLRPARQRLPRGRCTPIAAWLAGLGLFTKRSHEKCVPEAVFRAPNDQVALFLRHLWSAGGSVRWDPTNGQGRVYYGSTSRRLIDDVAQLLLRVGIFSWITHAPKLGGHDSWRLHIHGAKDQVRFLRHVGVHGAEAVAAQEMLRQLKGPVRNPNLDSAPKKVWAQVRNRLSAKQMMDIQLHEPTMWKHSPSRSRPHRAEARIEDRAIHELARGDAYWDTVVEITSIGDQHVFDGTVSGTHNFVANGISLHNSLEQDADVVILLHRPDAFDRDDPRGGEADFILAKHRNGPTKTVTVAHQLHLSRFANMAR
# [2] = biological target: T2, Histone-lysine N-methyltransferase NSD2 (Homo sapiens, UniProt O96028); type: biochemical
# T2 sequence (O96028 whole entry): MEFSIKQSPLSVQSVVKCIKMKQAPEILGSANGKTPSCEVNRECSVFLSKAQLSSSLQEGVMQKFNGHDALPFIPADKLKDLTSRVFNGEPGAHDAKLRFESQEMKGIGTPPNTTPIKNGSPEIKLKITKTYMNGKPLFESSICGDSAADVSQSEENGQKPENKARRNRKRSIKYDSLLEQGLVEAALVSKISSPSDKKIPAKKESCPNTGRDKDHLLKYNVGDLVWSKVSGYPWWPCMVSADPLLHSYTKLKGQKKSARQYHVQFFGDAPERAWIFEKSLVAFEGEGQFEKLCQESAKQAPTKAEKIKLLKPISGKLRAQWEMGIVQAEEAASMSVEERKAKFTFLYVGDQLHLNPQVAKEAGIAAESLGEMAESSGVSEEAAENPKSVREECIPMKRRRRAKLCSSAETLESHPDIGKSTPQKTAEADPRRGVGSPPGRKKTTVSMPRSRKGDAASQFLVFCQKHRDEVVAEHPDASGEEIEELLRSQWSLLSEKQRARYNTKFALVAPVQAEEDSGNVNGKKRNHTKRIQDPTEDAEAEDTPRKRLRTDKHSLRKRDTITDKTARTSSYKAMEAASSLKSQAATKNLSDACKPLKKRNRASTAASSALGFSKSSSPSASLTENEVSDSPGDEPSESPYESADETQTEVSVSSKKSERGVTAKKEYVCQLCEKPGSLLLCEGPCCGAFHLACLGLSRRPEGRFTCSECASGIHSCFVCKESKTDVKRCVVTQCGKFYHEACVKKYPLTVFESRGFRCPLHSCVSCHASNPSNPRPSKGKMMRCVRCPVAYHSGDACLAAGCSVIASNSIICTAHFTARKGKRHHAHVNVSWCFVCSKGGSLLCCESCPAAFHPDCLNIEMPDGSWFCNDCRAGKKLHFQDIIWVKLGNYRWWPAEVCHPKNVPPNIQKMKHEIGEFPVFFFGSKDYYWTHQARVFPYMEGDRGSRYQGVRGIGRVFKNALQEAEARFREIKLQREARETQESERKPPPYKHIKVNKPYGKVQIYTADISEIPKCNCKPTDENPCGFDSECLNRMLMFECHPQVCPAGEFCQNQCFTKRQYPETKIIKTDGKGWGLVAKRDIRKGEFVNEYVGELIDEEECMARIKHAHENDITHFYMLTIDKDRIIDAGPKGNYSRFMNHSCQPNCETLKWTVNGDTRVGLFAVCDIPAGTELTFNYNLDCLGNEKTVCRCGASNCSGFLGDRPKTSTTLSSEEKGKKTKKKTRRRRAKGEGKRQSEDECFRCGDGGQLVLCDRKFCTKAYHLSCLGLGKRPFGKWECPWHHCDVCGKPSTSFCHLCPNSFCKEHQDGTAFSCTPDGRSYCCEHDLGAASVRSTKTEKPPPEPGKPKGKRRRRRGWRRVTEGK
# Nonstructural protein 1 = Nonstructural protein 1 (Influenza A virus, UniProt Q194T2); type: functional, Influenza A virus (A/California/07/2009(H1N1))
# [3] = biological target: Dual specificity tyrosine-phosphorylation-regulated kinase 1A (Rattus norvegicus, UniProt Q63470); type: biochemical, Homo sapiens
# Streptococcus = test: Group A Streptococcus viability loss, dose response, counter-screen for streptokinase expression inhibitor project, luminescence, BacTiterGlo (AID 1915); type: functional, organism-based;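 also: potency for reduction of bacterial viability or growth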
# [4] = biological target: T3, RNA-editing ligase 1, mitochondrial (Trypanosoma brucei brucei, UniProt P86926); test: TbREL1 ligase inhibitors, dose response, biochemical, fluorescence, Trypanosoma brucei (AID 1117295); type: functional
# T3 sequence (P86926 whole entry): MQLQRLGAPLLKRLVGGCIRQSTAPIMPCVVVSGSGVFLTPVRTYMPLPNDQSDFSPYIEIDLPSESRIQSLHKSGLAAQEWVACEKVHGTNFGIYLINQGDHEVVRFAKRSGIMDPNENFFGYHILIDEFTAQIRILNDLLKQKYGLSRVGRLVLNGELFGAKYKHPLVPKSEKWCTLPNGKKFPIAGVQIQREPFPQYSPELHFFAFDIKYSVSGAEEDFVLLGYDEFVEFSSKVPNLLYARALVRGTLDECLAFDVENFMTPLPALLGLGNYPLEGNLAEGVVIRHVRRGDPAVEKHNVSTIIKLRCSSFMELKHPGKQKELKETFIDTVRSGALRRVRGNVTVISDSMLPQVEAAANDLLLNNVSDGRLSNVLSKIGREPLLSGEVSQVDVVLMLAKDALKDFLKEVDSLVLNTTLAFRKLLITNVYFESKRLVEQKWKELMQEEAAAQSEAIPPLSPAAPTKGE
# [5] = cytotoxicity in HEK-293T cells, dose response, cytotoxicity control for TCR NF-kB inhibitor project, luminescence, T-cell screen hits (AID 489026); type: functional, cell-based;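 also: cells exposed to compound about 14 hours before the viability readout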
# [6] = biological target: Transitional endoplasmic reticulum ATPase (Homo sapiens, UniProt P55072); test: p97 ATPase inhibitors, dose response, biochemical (AID 1534)
# Sequence of Transitional endoplasmic reticulum ATPase (P55072 whole entry): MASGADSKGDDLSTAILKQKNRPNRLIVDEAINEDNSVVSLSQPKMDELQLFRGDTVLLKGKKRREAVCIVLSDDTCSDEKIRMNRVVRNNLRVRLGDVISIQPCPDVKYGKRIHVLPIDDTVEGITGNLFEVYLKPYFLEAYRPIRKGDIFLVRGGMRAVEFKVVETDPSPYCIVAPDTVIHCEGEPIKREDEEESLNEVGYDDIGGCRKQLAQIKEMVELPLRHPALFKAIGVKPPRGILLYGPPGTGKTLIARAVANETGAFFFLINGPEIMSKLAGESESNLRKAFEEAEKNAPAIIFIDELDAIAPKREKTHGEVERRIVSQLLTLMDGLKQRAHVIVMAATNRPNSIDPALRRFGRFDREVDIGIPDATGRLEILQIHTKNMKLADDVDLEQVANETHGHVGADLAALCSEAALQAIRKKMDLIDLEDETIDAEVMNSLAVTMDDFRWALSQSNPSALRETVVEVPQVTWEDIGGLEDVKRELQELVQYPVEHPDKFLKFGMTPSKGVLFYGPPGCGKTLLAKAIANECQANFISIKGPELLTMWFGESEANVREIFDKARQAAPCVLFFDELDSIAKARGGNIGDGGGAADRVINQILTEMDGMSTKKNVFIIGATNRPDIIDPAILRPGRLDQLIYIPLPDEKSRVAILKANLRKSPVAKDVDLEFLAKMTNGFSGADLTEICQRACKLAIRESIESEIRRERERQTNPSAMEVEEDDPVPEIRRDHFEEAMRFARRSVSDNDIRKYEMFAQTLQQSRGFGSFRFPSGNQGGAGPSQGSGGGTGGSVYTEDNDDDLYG
# Sequence of Nonstructural protein 1 (Q194T2 whole entry): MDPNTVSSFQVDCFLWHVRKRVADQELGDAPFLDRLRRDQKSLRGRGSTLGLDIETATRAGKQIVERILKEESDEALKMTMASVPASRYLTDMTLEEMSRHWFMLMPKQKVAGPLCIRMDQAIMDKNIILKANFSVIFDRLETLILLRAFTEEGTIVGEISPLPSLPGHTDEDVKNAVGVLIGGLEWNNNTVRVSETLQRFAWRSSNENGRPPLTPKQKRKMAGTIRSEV
smiles,measurement,setting,value
Oc1nc(Nc2ccccc2Cl)cc2ccccc12,AC50,[1],9.33 µM (active)
O=C1C=C(c2c(O)ccc3ccccc23)c2ccccc2C1=O,AC50,[2],1.7 µM (active)
same,IC50,Nonstructural protein 1,46.5 µM (active)
Cc1nc2c(=O)n(C)c(=O)nc-2n(C)n1,AC50,[3],215 nM (active)
same,EC50,Streptococcus,9.31 µM (active)
same,IC50,[4],411 nM (active)
same,IC50,[5],9.41 µM (active)
same,IC50,[6],> 50 µM (not active)
same,AC50,[1],0.0978 µM (active)
O=C(CCN1C(=O)/C(=C\c2ccco2)SC1=S)Nc1ccc(C(=O)O)c(O)c1,AC50,[2],13.8 µM (active)
